{"source": "patent USRE37781E1", "about": "“Substituted cyclic carbonyls and derivatives thereof useful as retroviral protease inhibitors” (DuPont Pharmaceuticals Company, priority 1991, dated 2002)", "key": {"[1]": {"molecular_target": "single-chain tethered dimer of HIV protease (Human immunodeficiency virus 1, UniProt P04585)", "test": "biochemical", "format": "biochemical", "set-up": "fused on or other part: A second copy of the same protease unit is joined to the first by a short peptide tether, giving one polypeptide"}, "HIV-1 (RF) in MT-2 cells": {"tested_on": "HIV-1 (RF) in MT-2 cells", "test": "microbe, parasite or virus in culture", "format": "cell-based", "procedure,_shortened": "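HIV-1 laboratory strains (RF, MN, IIIB) grown in H9 cells in RPMI 1640 with 5% FCS; infections in MT-2 cells. Viral RNA quantified by hybridization with biotinylated gag/pol capture probes on streptavidin plates and alkaline phosphatase-conjugated reporter probes; BH10 gag-pol in vitro transcripts serve as RNA standards.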"}, "[2]": {"conditions": "read-out: HPLC K1, Table 2d, class symbols"}, "[3]": {"conditions": "Human immunodeficiency virus 1, MT2, 48 h, Table 2d, class symbols, read-out: IC90"}, "[4]": {"conditions": "Table 2d, HIV protease inhibition, HPLC method, read-out: HPLC K1"}}, "note": "Read-outs that look alike come from different tables or passages of the source."}
{"smiles": "O=S1(=O)N(Cc2ccc(O)cc2)C(Cc2ccccc2)C(O)C(O)C(Cc2ccccc2)N1Cc1ccc(O)cc1", "note": "(stereo not drawn) [23K]", "values": [{"measurement": "Ki", "setting": "[1]; Table 2m, read-out: HPLC Ki", "value": "< 10", "unit": "nM"}, {"measurement": "IC90", "setting": "HIV-1 (RF) in MT-2 cells; Table 2m", "value": "+++ (+++=<10 μg/mL)"}]}
{"smiles": "O=C1N(CC2CC2)C(Cc2ccccc2)C(O)C(O)C(Cc2ccccc2)N1c1ccccn1", "note": "(stereo not drawn) [Example 14D]", "values": [{"measurement": "Ki", "setting": "[1]; [2]", "value": "10 to 1000", "unit": "nM"}, {"measurement": "IC90", "setting": "HIV-1 (RF) in MT-2 cells; [3]", "value": "< 10", "unit": "µg/mL"}]}
{"smiles": "O=C1NC(Cc2ccccc2)C(O)C(O)C(Cc2ccccc2)N1CC1CC1CO", "note": "(stereo not drawn) [Example 12N]", "values": [{"measurement": "Ki", "setting": "[1]; [2]", "value": "10 to 1000", "unit": "nM"}, {"measurement": "IC90", "setting": "HIV-1 (RF) in MT-2 cells; [3]", "value": "> 100", "unit": "µg/mL"}]}
{"smiles": "O=C1N(Cc2ccccc2)C(Cc2ccccc2)C(O)C(O)C(Cc2ccccc2)N1CC1CC1CO", "note": "(stereo not drawn) [Example 12M]", "values": [{"measurement": "Ki", "setting": "[1]; [2]", "value": "< 10", "unit": "nM"}, {"measurement": "IC90", "setting": "HIV-1 (RF) in MT-2 cells; [3]", "value": "< 10", "unit": "µg/mL"}]}
{"smiles": "CC(O)c1cccc(CN2C(=O)N(Cc3cccc(C(C)O)c3)C(Cc3ccccc3)C(O)C(O)C2Cc2ccccc2)c1", "note": "(stereo not drawn) [Example 9H]", "values": [{"measurement": "Ki", "setting": "[1]; [2]", "value": "10 to 1000", "unit": "nM"}, {"measurement": "IC90", "setting": "HIV-1 (RF) in MT-2 cells; [3]", "value": "< 10", "unit": "µg/mL"}]}
{"smiles": "O=S1(=O)NC(Cc2ccccc2)C(O)C(O)C(Cc2ccccc2)N1CCCCCO", "note": "(stereo not drawn) [23AE]", "values": [{"measurement": "Ki", "setting": "[1]; Table 2m, read-out: HPLC Ki", "value": "10 to 1000", "unit": "nM"}, {"measurement": "IC90", "setting": "HIV-1 (RF) in MT-2 cells; Table 2m", "value": "++/+ (The ++/+ is used in the cases where an IC90 was determined to be >50 μg/mL)"}]}
{"smiles": "O=C1N(Cc2cccnc2Cl)C(Cc2ccccc2)C(O)C(O)C(Cc2ccccc2)N1Cc1cccnc1Cl", "note": "(stereo not drawn) [Example 14A]", "values": [{"measurement": "Ki", "setting": "[1]; [2]", "value": "10 to 1000", "unit": "nM"}, {"measurement": "IC90", "setting": "HIV-1 (RF) in MT-2 cells; [3]", "value": "10 to 100", "unit": "µg/mL"}]}
{"smiles": "CN(C)CCNC(=O)c1cccc(CN2C(Cc3ccccc3)C(O)C(O)C(Cc3ccccc3)N(Cc3cccc(C(=O)NCCN(C)C)c3)S2(=O)=O)c1", "note": "(stereo not drawn) [23AA]", "values": [{"measurement": "Ki", "setting": "[1]; Table 2m, read-out: HPLC Ki", "value": "10 to 1000", "unit": "nM"}, {"measurement": "IC90", "setting": "HIV-1 (RF) in MT-2 cells; Table 2m", "value": "++ (++=10 to 100 μg/mL)"}]}
{"smiles": "NC(=NO)c1cc(CN2C(=O)N(Cc3ccc(F)c(C(N)=NO)c3)C(Cc3ccccc3)C(O)C(O)C2Cc2ccccc2)ccc1F", "note": "(stereo not drawn) [15EF]", "values": [{"measurement": "Ki", "setting": "[1]; [4]", "value": "< 10", "unit": "nM"}, {"measurement": "IC90", "setting": "HIV-1 (RF) in MT-2 cells; Table 2d, HIV RNA assay", "value": "+++ (+++=<10 μg/mL)"}]}
{"smiles": "O=Cc1cccc(CN2C(Cc3ccccc3)C(O)C(O)C(Cc3ccccc3)N(Cc3cccc(C=O)c3)S2(=O)=O)c1", "note": "(stereo not drawn) [23Q]", "values": [{"measurement": "Ki", "setting": "[1]; Table 2m, read-out: HPLC Ki", "value": "< 10", "unit": "nM"}, {"measurement": "IC90", "setting": "HIV-1 (RF) in MT-2 cells; Table 2m", "value": "+++ (+++=<10 μg/mL)"}]}
{"smiles": "COC(=O)c1ccc(CN2C(Cc3ccc(F)cc3)C(O)C(O)C(Cc3ccc(F)cc3)N(Cc3ccc(C(=O)OC)cc3)S2(=O)=O)cc1", "note": "(stereo not drawn) [31B]", "values": [{"measurement": "Ki", "setting": "[1]; Table 2u (second printing), HPLC method, read-out: K1 (HPLC)", "value": "10 to 1000", "unit": "nM"}, {"measurement": "Ki", "setting": "[1]; Table 2u, HPLC method, read-out: K1 (HPLC)", "value": "10 to 1000", "unit": "nM"}, {"measurement": "IC90", "setting": "HIV-1 (RF) in MT-2 cells; Table 2u", "value": "+++ (+++=<10 μg/mL)"}, {"measurement": "IC90", "setting": "HIV-1 (RF) in MT-2 cells; Table 2u (second printing)", "value": "+++ (+++=<10 μg/mL)"}]}
{"smiles": "O=C1N(CCCCC2CO2)C(Cc2ccccc2)C(O)C(O)C(Cc2ccccc2)N1CCCCC1CO1", "note": "(stereo not drawn) [Example 13E]", "values": [{"measurement": "Ki", "setting": "[1]; [2]", "value": "10 to 1000", "unit": "nM"}, {"measurement": "IC90", "setting": "HIV-1 (RF) in MT-2 cells; [3]", "value": "< 10", "unit": "µg/mL"}]}
{"smiles": "O=C1N(Cc2cccc(CO)c2)C(Cc2ccccc2)C(O)C(O)C(Cc2ccccc2)N1Cc1cccc(-c2cc[nH]n2)c1", "note": "(stereo not drawn) [Example 15BQ]", "values": [{"measurement": "Ki", "setting": "[1]; read-out: HPLC K1, Table 2d, HIV protease inhibition, HPLC method", "value": "< 10", "unit": "nM"}, {"measurement": "IC90", "setting": "HIV-1 (RF) in MT-2 cells; Human immunodeficiency virus 1, MT2, 48 h, Table 2d, HIV RNA assay, read-out: IC90", "value": "< 10", "unit": "µg/mL"}]}
{"smiles": "N#CCCCCN1C(=O)N(CCCCC#N)C(Cc2ccccc2)C(O)C(O)C1Cc1ccccc1", "note": "(stereo not drawn) [15FD]", "values": [{"measurement": "Ki", "setting": "[1]; read-out: HPLC K1, HIV protease inhibition, HPLC method, Table 2d", "value": "10 to 1000", "unit": "nM"}, {"measurement": "IC90", "setting": "HIV-1 (RF) in MT-2 cells; Human immunodeficiency virus 1, MT2, 48 h, HIV RNA assay, HIV-1 infected MT-2 cells, Table 2d, read-out: IC90", "value": "10 to 100", "unit": "µg/mL"}]}
{"smiles": "N#Cc1cccc(CN2C(=S)N(Cc3ccccc3)C(Cc3ccccc3)C(O)C(O)C2Cc2ccccc2)c1", "note": "(stereo not drawn) [Example 27E]", "values": [{"measurement": "Ki", "setting": "[1]; Table 2q, read-out: HPLC Ki", "value": "< 10", "unit": "nM"}, {"measurement": "IC90", "setting": "HIV-1 (RF) in MT-2 cells; Table 2q", "value": "+++ (+++=<10 μg/mL)"}]}
{"smiles": "O=P1(Oc2ccccc2)N(Cc2cccc(CO)c2)[C@H](Cc2ccccc2)[C@H](O)[C@@H](O)[C@@H](Cc2ccccc2)N1Cc1cccc(CO)c1", "note": "(stereo partly drawn) [28J]", "values": [{"measurement": "Ki", "setting": "[1]; Table 2r, read-out: Ki HPLC", "value": "10 to 1000", "unit": "nM"}, {"measurement": "IC90", "setting": "HIV-1 (RF) in MT-2 cells; Table 2r", "value": "++ (++=10 to 100 μg/mL)"}]}
{"smiles": "O=P1(Oc2ccccc2)N[C@H](Cc2ccccc2)[C@H](O)[C@@H](O)[C@@H](Cc2ccccc2)N1", "note": "(stereo partly drawn) [28A]", "values": [{"measurement": "Ki", "setting": "[1]; Table 2r, read-out: Ki HPLC", "value": "> 1000", "unit": "nM"}, {"measurement": "IC90", "setting": "HIV-1 (RF) in MT-2 cells; Table 2r", "value": "++ (++=10 to 100 μg/mL)"}]}
{"smiles": "NC(=NO)c1cccc(CN2C(=O)N(Cc3cccc(C(N)=NO)c3)C(Cc3ccccc3)C(O)C(O)C2Cc2ccccc2)c1", "note": "(stereo not drawn) [20V]", "values": [{"measurement": "Ki", "setting": "[1]; Table 2i, read-out: HPLC Ki", "value": "< 10", "unit": "nM"}, {"measurement": "IC90", "setting": "HIV-1 (RF) in MT-2 cells; Table 2i", "value": "+++ (+++=<10 μg/mL)"}]}
{"smiles": "O=S1(=O)N(Cc2ccc3ccccc3c2)C(Cc2ccccc2)C(O)C(O)C(Cc2ccccc2)N1Cc1ccc2ccccc2c1", "note": "(stereo not drawn) [23H]", "values": [{"measurement": "Ki", "setting": "[1]; Table 2m, read-out: HPLC Ki", "value": "< 10", "unit": "nM"}, {"measurement": "IC90", "setting": "HIV-1 (RF) in MT-2 cells; Table 2m", "value": "+++ (+++=<10 μg/mL)"}]}
{"smiles": "O=P1(Oc2ccccc2)N(Cc2ccc(CO)cc2)[C@H](Cc2ccccc2)[C@H](O)[C@@H](O)[C@@H](Cc2ccccc2)N1Cc1ccc(CO)cc1", "note": "(stereo partly drawn) [28E]", "values": [{"measurement": "Ki", "setting": "[1]; Table 2r, read-out: Ki HPLC", "value": "10 to 1000", "unit": "nM"}, {"measurement": "IC90", "setting": "HIV-1 (RF) in MT-2 cells; Table 2r", "value": "+++ (+++=<10 μg/mL)"}]}
{"smiles": "O=C1NC(Cc2ccccc2)C(O)C(O)C(Cc2ccccc2)N1CCCCCCCO", "note": "(stereo not drawn) [Example 12o]", "values": [{"measurement": "Ki", "setting": "[1]; [2]", "value": "10 to 1000", "unit": "nM"}, {"measurement": "IC90", "setting": "HIV-1 (RF) in MT-2 cells; [3]", "value": "10 to 100", "unit": "µg/mL"}]}
{"smiles": "CC1(C)CCC(C)(C)c2cc(CN3C(=O)N(Cc4ccc5c(c4)C(C)(C)CCC5(C)C)C(Cc4ccccc4)C(O)C(O)C3Cc3ccccc3)ccc21", "note": "(stereo not drawn) [15EL]", "values": [{"measurement": "Ki", "setting": "[1]; [4]", "value": "> 1000", "unit": "nM"}, {"measurement": "IC90", "setting": "HIV-1 (RF) in MT-2 cells; Table 2d, HIV RNA assay", "value": "++/+ (The ++/+ is used in the cases where an IC90 was determined to be >50 μg/mL)"}]}
{"smiles": "O=C1N(CCCCC(Br)CBr)C(Cc2ccccc2)C(O)C(O)C(Cc2ccccc2)N1CCCCC(Br)CBr", "note": "(stereo not drawn) [Example 13F]", "values": [{"measurement": "Ki", "setting": "[1]; [2]", "value": "10 to 1000", "unit": "nM"}, {"measurement": "IC90", "setting": "HIV-1 (RF) in MT-2 cells; [3]", "value": "> 100", "unit": "µg/mL"}]}
